Like-named read-outs stand apart in the source and are kept apart here. One block for each compound: values may come before it.
How the values were obtained:
ALK = molecular target: T1, ALK (Homo sapiens, UniProt Q9UM73); experiment: ALK Kinase Assay (ELISA/TRF, PLC-γ substrate); type: biochemical; settings: read-out: ALK Potency
T1 construct: host or cells: baculovirus expression system
Outline: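 PLC-γ coat 10 μg/mL in TBS; ALK 30 ng/ml added to start; 37° C, 15 min; Eu-N1 PT66 antibody detection (TRF). IC50: % inhibition vs log10 [cpd], variable-slope sigmoidal fit.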

JAK2 = molecular target: T2, JAK2 (Homo sapiens, UniProt O60674); experiment: Recombinant Human JAK2 Kinase Assay (TRF); type: biochemical; settings: read-out: JAK2 Potency
T2 construct: host or cells: baculovirus expression system
T2 sequence (O60674 whole entry): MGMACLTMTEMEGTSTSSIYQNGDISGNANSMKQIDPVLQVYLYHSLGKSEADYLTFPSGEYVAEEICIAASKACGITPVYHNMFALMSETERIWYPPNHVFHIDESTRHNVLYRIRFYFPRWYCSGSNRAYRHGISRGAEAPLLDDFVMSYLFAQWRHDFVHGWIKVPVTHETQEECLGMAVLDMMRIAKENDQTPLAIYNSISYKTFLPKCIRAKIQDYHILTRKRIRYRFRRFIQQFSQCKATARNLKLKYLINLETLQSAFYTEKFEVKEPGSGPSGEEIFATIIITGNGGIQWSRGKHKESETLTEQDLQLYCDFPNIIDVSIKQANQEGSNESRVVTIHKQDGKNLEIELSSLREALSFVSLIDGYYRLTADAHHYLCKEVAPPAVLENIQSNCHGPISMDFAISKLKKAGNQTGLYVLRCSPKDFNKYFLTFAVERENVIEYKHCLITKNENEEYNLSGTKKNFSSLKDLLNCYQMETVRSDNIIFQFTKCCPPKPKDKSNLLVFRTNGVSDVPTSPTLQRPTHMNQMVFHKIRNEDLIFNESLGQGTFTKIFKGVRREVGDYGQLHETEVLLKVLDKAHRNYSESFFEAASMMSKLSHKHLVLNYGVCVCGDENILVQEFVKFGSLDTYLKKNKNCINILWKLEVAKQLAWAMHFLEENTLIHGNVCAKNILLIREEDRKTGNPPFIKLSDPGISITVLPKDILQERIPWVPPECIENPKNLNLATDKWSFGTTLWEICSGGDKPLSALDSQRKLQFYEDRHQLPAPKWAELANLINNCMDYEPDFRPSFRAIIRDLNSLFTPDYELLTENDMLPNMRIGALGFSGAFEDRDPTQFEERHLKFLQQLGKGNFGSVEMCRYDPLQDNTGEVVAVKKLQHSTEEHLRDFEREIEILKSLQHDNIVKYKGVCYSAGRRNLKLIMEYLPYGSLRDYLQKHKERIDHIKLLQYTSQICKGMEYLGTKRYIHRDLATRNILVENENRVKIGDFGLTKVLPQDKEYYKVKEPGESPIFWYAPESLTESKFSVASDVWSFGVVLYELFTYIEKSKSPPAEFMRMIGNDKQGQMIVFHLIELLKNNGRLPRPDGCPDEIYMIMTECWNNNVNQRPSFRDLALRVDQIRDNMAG
Outline: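 Baculovirus-expressed JAK2 (15 ng/ml) phosphorylated a biotinylated 15-mer peptide captured on Neutravidin-coated plates, in 20 mM HEPES pH 7.2 with 0.2 μM ATP, 1 mM MnCl2, 0.1% BSA and 2.5% DMSO. Reaction ran 20 min at room temperature; phosphopeptide was detected by time-resolved fluorescence with Eu-N1-labelled PY100 antibody.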

[1] = ALK kinase inhibition, 1 μM ATP
[2] = JAK2 kinase inhibition, 0.2 μM ATP

T1 sequence (Q9UM73 19-1620): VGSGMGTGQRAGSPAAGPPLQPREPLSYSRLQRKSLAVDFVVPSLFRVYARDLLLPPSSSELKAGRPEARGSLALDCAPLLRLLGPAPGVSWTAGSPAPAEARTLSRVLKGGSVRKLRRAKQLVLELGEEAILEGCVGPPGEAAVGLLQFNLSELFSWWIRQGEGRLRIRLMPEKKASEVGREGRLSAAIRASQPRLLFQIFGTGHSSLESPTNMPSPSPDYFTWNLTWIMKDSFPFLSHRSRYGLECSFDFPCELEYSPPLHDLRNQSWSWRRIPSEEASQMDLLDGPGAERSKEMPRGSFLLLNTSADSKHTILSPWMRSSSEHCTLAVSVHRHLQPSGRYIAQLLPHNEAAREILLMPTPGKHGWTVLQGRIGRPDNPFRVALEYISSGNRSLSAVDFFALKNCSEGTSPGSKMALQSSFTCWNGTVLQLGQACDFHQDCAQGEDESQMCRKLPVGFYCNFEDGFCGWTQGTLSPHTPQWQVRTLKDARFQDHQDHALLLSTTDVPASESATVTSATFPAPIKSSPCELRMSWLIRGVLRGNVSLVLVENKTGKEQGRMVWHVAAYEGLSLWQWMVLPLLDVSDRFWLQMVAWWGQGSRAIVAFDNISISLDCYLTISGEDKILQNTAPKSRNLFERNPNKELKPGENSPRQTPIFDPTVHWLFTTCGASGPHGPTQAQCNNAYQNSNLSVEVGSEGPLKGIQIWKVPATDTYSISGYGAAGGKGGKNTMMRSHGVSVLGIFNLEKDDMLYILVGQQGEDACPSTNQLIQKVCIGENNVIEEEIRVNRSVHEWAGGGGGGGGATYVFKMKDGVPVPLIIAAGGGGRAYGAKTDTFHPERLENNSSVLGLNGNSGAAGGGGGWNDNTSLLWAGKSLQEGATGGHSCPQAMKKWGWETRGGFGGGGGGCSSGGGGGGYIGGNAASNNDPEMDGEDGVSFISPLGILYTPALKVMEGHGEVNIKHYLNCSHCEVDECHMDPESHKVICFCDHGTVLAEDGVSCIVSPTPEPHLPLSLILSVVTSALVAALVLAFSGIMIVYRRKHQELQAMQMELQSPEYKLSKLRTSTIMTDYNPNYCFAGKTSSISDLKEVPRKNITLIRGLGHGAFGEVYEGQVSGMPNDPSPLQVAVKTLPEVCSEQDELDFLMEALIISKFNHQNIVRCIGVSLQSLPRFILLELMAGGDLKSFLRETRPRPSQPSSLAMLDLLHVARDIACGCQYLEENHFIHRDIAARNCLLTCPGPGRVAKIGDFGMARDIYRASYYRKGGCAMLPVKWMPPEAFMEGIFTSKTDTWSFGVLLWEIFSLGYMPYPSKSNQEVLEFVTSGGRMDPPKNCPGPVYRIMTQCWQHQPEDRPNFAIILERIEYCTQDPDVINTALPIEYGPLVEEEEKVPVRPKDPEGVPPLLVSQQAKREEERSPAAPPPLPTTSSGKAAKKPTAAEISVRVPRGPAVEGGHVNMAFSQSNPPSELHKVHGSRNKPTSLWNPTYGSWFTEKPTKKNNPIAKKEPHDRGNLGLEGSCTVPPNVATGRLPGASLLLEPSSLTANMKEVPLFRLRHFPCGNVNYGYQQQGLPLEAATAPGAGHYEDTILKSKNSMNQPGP

Structure (SMILES): COc1cc(N2CCC(N3CCOCC3)C2)ccc1Nc1ncc2ccc(-c3ccccc3N(C)S(C)(=O)=O)n2n1 (racemic) [Example 782, (±)-N-(2-{2-[2-Methoxy-4-(3-morpholin-4-yl-pyrrolidin-1-yl)-phenylamino]-pyrrolo[2,1-f][1,2,4]triazin-7-yl}-phenyl)-N-methyl-methanesulfonamide]
IC50 (ALK; [1]): < 100 nM | IC50 (JAK2; [2]): 100 to 1000 nM

Structure (SMILES): CS(=O)(=O)c1ccc(-c2ccc3cnc(Nc4ccc(-c5cccnc5)cc4)nn23)cc1 [Example 1089, [7-(4-Methanesulfonyl-phenyl)-pyrrolo[2,1-f][1,2,4]triazin-2-yl]-(4-pyridin-3-yl-phenyl)-amine]
IC50 (ALK; [1]): 1000 to 10000 nM | IC50 (JAK2; [2]): < 100 nM

Structure (SMILES): Cc1ccc(S(=O)(=O)N(C)C)cc1-c1ccc2cnc(Nc3ccc(N4CCN(C)CC4)cc3)nn12 [Example 74, 4,N,N-Trimethyl-3-{2-[4-(4-methyl-piperazin-1-yl)-phenylamino]-pyrrolo[2,1-f][1,2,4]triazin-7-yl}-benzenesulfonamide]
IC50 (ALK; ALK Kinase Inhibition): 100 to 1000 nM | IC50 (JAK2; JAK2 Kinase Inhibition): < 100 nM

Structure (SMILES): COc1cc(C2CCN(CC3CCN3C)CC2)ccc1Nc1ncc2ccc(-c3ccccc3N(C)S(C)(=O)=O)n2n1 (racemic) [Example 871, (±)-N-[2-(2-{2-Methoxy-4-[1-(1-methyl-azetidin-2-ylmethyl)-piperidin-4-yl]-phenylamino}-pyrrolo[2,1-f][1,2,4]triazin-7-yl)-phenyl]-N-methyl-methanesulfonamide]
IC50 (ALK; [1]): < 100 nM | IC50 (JAK2; [2]): 1000 to 10000 nM

Structure (SMILES): CN(C)S(=O)(=O)c1ccc(-c2ccc3cnc(Nc4ccc(N5CCOCC5)cc4)nn23)cc1 [Example 71, N,N-Dimethyl-4-[2-(4-morpholin-4-yl-phenylamino)-pyrrolo[2,1-f][1,2,4]triazin-7-yl]-benzenesulfonamide]
IC50 (ALK; ALK Kinase Inhibition): > 10000 nM | IC50 (JAK2; JAK2 Kinase Inhibition): < 100 nM

Structure (SMILES): CS(=O)(=O)c1ccc(-c2ccc3cnc(Nc4ccc(N5CCOCC5)nc4)nn23)cc1 [Example 60, [7-(4-Methanesulfonyl-phenyl)-pyrrolo[2,1-f][1,2,4]triazin-2-yl]-(6-morpholin-4-yl-pyridin-3-yl)-amine]
IC50 (ALK; ALK Kinase Inhibition): 1000 to 10000 nM | IC50 (JAK2; JAK2 Kinase Inhibition): < 100 nM

Structure (SMILES): Cn1cc(-c2ccc3cnc(N4CCC(Oc5cccc(N)c5)CC4)nn23)cn1 [Example 598, 3-{1-[7-(1-Methyl-1H-pyrazol-4-yl)-pyrrolo[2,1-f][1,2,4]triazin-2-yl]-piperdin-4-yloxy}-phenylamine]
IC50 (ALK; [1]): > 10000 nM | IC50 (JAK2; [2]): 100 to 1000 nM

Structure (SMILES): COc1cc(C2CCN(C3COC3)CC2)ccc1Nc1ncc2ccc(-c3ccccc3N(C)S(C)(=O)=O)n2n1 [Example 828, N-(2-{2-[2-Methoxy-4-(1-oxetan-3-yl-piperidin-4-yl)-phenylamino]-pyrrolo[2,1-f][1,2,4]triazin-7-yl}-phenyl)-N-methyl-methanesulfonamide]
IC50 (ALK; [1]): < 100 nM | IC50 (JAK2; [2]): 1000 to 10000 nM

Structure (SMILES): COc1ccccc1-c1ccc2cnc(Nc3ccc(C4(C#N)CCN(CC(N)=O)CC4)cc3)nn12 [Example 1548, 2-(4-Cyano-4-{4-[7-(2-methoxy-phenyl)-pyrrolo[2,1-f][1,2,4]triazin-2-ylamino]-phenyl}-piperidin-1-yl)-acetamide]
IC50 (ALK; ALK Kinase Inhibition): 100 to 1000 nM | IC50 (JAK2; JAK2 Kinase Inhibition): < 100 nM

Structure (SMILES): FC(F)(F)c1ccc(Cl)c(-c2ccc3cnc(Nc4ccc(N5CCOCC5)cc4)nn23)c1 [Example 70, [7-(2-Chloro-5-trifluoromethyl-phenyl)-pyrrolo[2,1-f][1,2,4]triazin-2-yl]-(4-morpholin-4-yl-phenyl)-amine]
IC50 (ALK; ALK Kinase Inhibition): 1000 to 10000 nM | IC50 (JAK2; JAK2 Kinase Inhibition): < 100 nM

Structure (SMILES): COc1cc(C2CCN(C)CC2)ccc1Nc1ncc2ccc(-c3cccc(S(=O)(=O)NC(C)(C)C)c3)n2n1 [Example 692, N-tert-Butyl-3-{2-[2-methoxy-4-(1-methyl-piperidin-4-yl)-phenylamino]-pyrrolo[2,1-f][1,2,4]triazin-7-yl}-benzenesulfonamide]
IC50 (ALK; [1]): < 100 nM | IC50 (JAK2; [2]): < 100 nM

Structure (SMILES): CCCS(=O)(=O)Nc1cccc(-c2ccc3cnc(Nc4ccc(N5CCOCC5)cc4)nn23)c1 [Example 418, Propane-1-sulfonic acid {3-[2-(4-morpholin-4-yl-phenylamino)-pyrrolo[2,1-f][1,2,4]triazin-7-yl]-phenyl}-amide]
IC50 (ALK; ALK Kinase Inhibition): 100 to 1000 nM | IC50 (JAK2; JAK2 Kinase Inhibition): < 100 nM

Structure (SMILES): COc1cc(C2CCN(C(=O)C(C)(C)N)CC2)ccc1Nc1ncc2ccc(-c3ccccc3N(C)S(C)(=O)=O)n2n1 [Example 822, N-[2-(2-{4-[1-(2-Amino-2-methyl-propionyl)-piperidin-4-yl]-2-methoxy-phenylamino}-pyrrolo[2,1-f][1,2,4]triazin-7-yl)-phenyl]-N-methyl-methanesulfonamide]
IC50 (ALK; [1]): < 100 nM | IC50 (JAK2; [2]): 100 to 1000 nM

Structure (SMILES): CN1CCN(c2ccc(Nc3ncc4ccc(-c5ccccc5S(=O)(=O)NC(C)(C)C)n4n3)cc2)CC1 [Example 411]
IC50 (ALK; ALK Kinase Inhibition): < 100 nM | IC50 (JAK2; JAK2 Kinase Inhibition): < 100 nM

Second part, the compound after the results:

IC50 (ALK; ALK Kinase Inhibition): 100 to 1000 nM | IC50 (JAK2; JAK2 Kinase Inhibition): < 100 nM
Structure (SMILES): CN1CCN(c2ccc(Nc3ncc4ccc(-c5cccnc5)n4n3)cc2)CC1 [Example 27, [4-(4-Methyl-piperazin-1-yl)-phenyl]-(7-pyridin-3-yl-pyrrolo[2,1-f][1,2,4]triazin-2-yl)-amine]

IC50 (ALK; ALK Kinase Inhibition): 1000 to 10000 nM | IC50 (JAK2; JAK2 Kinase Inhibition): < 100 nM
Structure (SMILES): CS(=O)(=O)c1ccc(-c2ccc3cnc(Nc4cccc(N5CCOCC5)c4)nn23)cc1F [Example 193, [7-(3-Fluoro-4-methanesulfonyl-phenyl)-pyrrolo[2,1-f][1,2,4]triazin-2-yl]-(3-morpholin-4-yl-phenyl)-amine]

IC50 (ALK; ALK Kinase Inhibition): > 10000 nM | IC50 (JAK2; JAK2 Kinase Inhibition): < 100 nM
Structure (SMILES): COc1cccc(Nc2ncc3cc4ccccc4n3n2)c1 [Example 272, (3-Methoxy-phenyl)-[1,2,4]triazino[1,6-a]indol-2-yl-amine]

IC50 (ALK; [1]): < 100 nM | IC50 (JAK2; [2]): < 100 nM
Structure (SMILES): CN1CCC(c2ccc(Nc3ncc4ccc(-c5ccccc5N(C)S(C)(=O)=O)n4n3)cc2)CC1 [Example 1178, N-Methyl-N-(2-{2-[4-(1-methyl-piperidin-4-yl)-phenylamino]-pyrrolo[2,1-f][1,2,4]triazin-7-yl}-phenyl)-methanesulfonamide]

IC50 (ALK; [1]): 1000 to 10000 nM | IC50 (JAK2; [2]): < 100 nM
Structure (SMILES): O=S(=O)(CC1CC1)c1cccc(-c2ccc3cnc(Nc4ccc5[nH]ncc5c4)nn23)c1 [Example 1314]

IC50 (ALK; ALK Kinase Inhibition): < 100 nM | IC50 (JAK2; JAK2 Kinase Inhibition): 100 to 1000 nM
Structure (SMILES): COc1cc2c(cc1Nc1ncc3ccc(-c4ccccc4OC)n3n1)C(=O)CC1(CCN(C)CC1)O2 [Example 1491]

IC50 (ALK; ALK Kinase Inhibition): 100 to 1000 nM | IC50 (JAK2; JAK2 Kinase Inhibition): < 100 nM
Structure (SMILES): COc1ccccc1-c1ccc2cnc(Nc3ccc4nc(CN5CCN(C)CC5)[nH]c4c3)nn12 [Example 1526, [7-(2-Methoxy-phenyl)-pyrrolo[2,1-f][1,2,4]triazin-2-yl]-[2-(4-methyl-piperazin-1-ylmethyl)-3H-benzimidazol-5-yl]-amine]

IC50 (ALK; [1]): 100 to 1000 nM | IC50 (JAK2; [2]): < 100 nM
Structure (SMILES): COc1ccccc1-c1ccc2cnc(Nc3ccc4nn(CCN5CCOCC5)cc4c3)nn12 [Example 1351, [7-(2-Methoxy-phenyl)-pyrrolo[2,1-f][1,2,4]triazin-2-yl]-[2-(2-morpholin-4-yl-ethyl)-2H-indazol-5-yl]-amine]

IC50 (ALK; [1]): < 100 nM | IC50 (JAK2; [2]): 1000 to 10000 nM
Structure (SMILES): COc1cc(CN2C[C@@H](O)[C@H](O)C2)ccc1Nc1ncc2ccc(-c3ccccc3N(C)S(C)(=O)=O)n2n1 [Example 1236, N-(2-{2-[4-((3R,4R)-3,4-Dihydroxy-pyrrolidin-1-ylmethyl)-2-methoxy-phenylamino]-pyrrolo[2,1-f][1,2,4]triazin-7-yl}-phenyl)-N-methyl-methanesulfonamide]

IC50 (ALK; ALK Kinase Inhibition): 1000 to 10000 nM | IC50 (JAK2; JAK2 Kinase Inhibition): < 100 nM
Structure (SMILES): NC(=O)c1ccccc1-c1ccc2cnc(Nc3ccc(N4CCOCC4)cc3)nn12 [Example 36, 2-[2-(4-Morpholin-4-yl-phenylamino)-pyrrolo[2,1-f][1,2,4]triazin-7-yl]-benzamide]

IC50 (ALK; [1]): 1000 to 10000 nM | IC50 (JAK2; [2]): < 100 nM
Structure (SMILES): COCCNc1cccc(-c2ccc3cnc(Nc4cccc(NC(C)=O)c4)nn23)c1 [Example 988, N-(3-{7-[3-(2-Methoxy-ethylamino)-phenyl]-pyrrolo[2,1-f][1,2,4]triazin-2-ylamino}-phenyl)-acetamide]

IC50 (ALK; [1]): 100 to 1000 nM | IC50 (JAK2; [2]): < 100 nM
Structure (SMILES): COc1ccccc1-c1ccc2cnc(Nc3ccn(CCN4CCOCC4)n3)nn12 [Example 1183, [7-(2-Methoxy-phenyl)-pyrrolo[2,1-f][1,2,4]triazin-2-yl]-[1-(2-morpholin-4-yl-ethyl)-1H-pyrazol-3-yl]-amine]

IC50 (ALK; ALK Kinase Inhibition): < 100 nM | IC50 (JAK2; JAK2 Kinase Inhibition): < 100 nM
Structure (SMILES): COc1ccccc1-c1ccc2cnc(Nc3cccc(N4CCC(N5CCOCC5)CC4)c3)nn12 [Example 195, [7-(2-Methoxy-phenyl)-pyrrolo[2,1-f][1,2,4]triazin-2-yl]-[3-(4-morpholin-4-yl-piperidin-1-yl)-phenyl]-amine]

IC50 (ALK; [1]): < 100 nM | IC50 (JAK2; [2]): 100 to 1000 nM
Structure (SMILES): COc1cc2c(cc1Nc1ncc3ccc(-c4ccccc4N(C)S(C)(=O)=O)n3n1)CN(C(C)C)C2 [Example 876, N-{2-[2-(2-Isopropyl-6-methoxy-2,3-dihydro-1H-isoindol-5-ylamino)-pyrrolo[2,1-f][1,2,4]triazin-7-yl]-phenyl}-N-methyl-methanesulfonamide]

IC50 (ALK; ALK Kinase Inhibition): 100 to 1000 nM | IC50 (JAK2; JAK2 Kinase Inhibition): < 100 nM
Structure (SMILES): CN(c1ccccc1-c1ccc2cnc(Nc3ccc4c(c3)NC(=O)C(C)(C)O4)nn12)S(C)(=O)=O [Example 1371, N-{2-[2-(2,2-Dimethyl-3-oxo-3,4-dihydro-2H-1,4-benzoxazin-6-ylamino)-pyrrolo[2,1-f][1,2,4]triazin-7-yl]-phenyl}-N-methyl-methanesulfonamide]

IC50 (ALK; [1]): > 10000 nM | IC50 (JAK2; [2]): < 100 nM
Structure (SMILES): CCS(=O)(=O)c1cccc(-c2ccc3cnc(Nc4ccc5nc(C(F)(F)F)[nH]c5c4)nn23)c1 [Example 1313, [7-(3-Ethanesulfonyl-phenyl)-pyrrolo[2,1-f][1,2,4]triazin-2-yl]-(2-trifluoromethyl-3H-benzimidazol-5-yl)-amine]
